Results taken from patent publication US20240245682A1, “ALPHA-V-BETA-8 INTEGRIN INHIBITORS AND USES THEREOF” (Pliant Therapeutics, Inc., priority 2022, published 2024).

Legend:
Assay in all cases: AlphaScreen proximity-based integrin binding assay with TGF-b1 LAP
Settings in all cases: values given as ranges
human integrin αVβ6 = human integrin αVβ6 (Homo sapiens, UniProt P06756+P18564)
Protocol: (§1) The biochemical potency of the disclosed compounds was determined using the AlphaScreen® (Perkin Elmer, Waltham, MA) proximity-based assay as described previously (Ullman E F et al., Luminescent oxygen channeling immunoassay: Measurement of particle binding kinetics by chemiluminescence. Proc. Natl. Acad. Sci. USA, Vol. 91, pp. 5426-5430, June 1994, herein incorporated by reference in its entirety). To gauge the potency of inhibitors of binding to each of human integrins αVβ1, αVβ6, and αVβ8, inhibitor compounds were independently incubated with one of αVβ1, αVβ6, or αVβ8, together with TGF-b1 LAP and biotinylated anti-LAP antibody plus acceptor and donor beads, following the manufacture's recommendations. The donor beads were coated with streptavidin. […] All incubations occurred at room temperatures in 50 mM Tris-HCl, pH 7.5, 0.1% BSA supplemented with 1 mM each CaCl2 and MgCl2.
(§2) The order of reagent addition was as follows:
(§3) 1. αVβ1, αVβ6, or αVβ8 integrin, test inhibitor compound, LAP, biotinylated anti-LAP antibody and acceptor beads were all added together.
(§4) 2. After 2 hours, donor beads were added. After another 30 minute incubation, samples were then read.
(§5) Integrin binding was evaluated by exciting donor beads at 680 nm, and measuring the fluorescent signal produced, between 520-620 nm, using a Biotek Instruments (Winooski, VT, USA) SynergyNeo2 multimode plate reader. Compound potency was assessed by determining inhibitor concentrations required to reduce fluorescent light output by 50%. Data analysis for IC50 determinations was carried out by nonlinear four parameter logistic regression analysis using Dotmatics ELN Software (Core Informatics Inc., Branford, Ct). […] Comp #in the Table and Examples below refers to the compound of the corresponding Example number as described in the Synthetic Examples.

human integrin αVβ8 = human integrin αVβ8 (Homo sapiens, UniProt P06756+P26012)
Protocol: as §1, §2, §3, §4, §5

human integrin αVβ1 = human integrin αVβ1 (Homo sapiens, UniProt P05556+P06756)
Protocol: as §1, §2, §3, §4, §5

Sequence of human integrin αVβ1 (P06756 31-992 limits assumed): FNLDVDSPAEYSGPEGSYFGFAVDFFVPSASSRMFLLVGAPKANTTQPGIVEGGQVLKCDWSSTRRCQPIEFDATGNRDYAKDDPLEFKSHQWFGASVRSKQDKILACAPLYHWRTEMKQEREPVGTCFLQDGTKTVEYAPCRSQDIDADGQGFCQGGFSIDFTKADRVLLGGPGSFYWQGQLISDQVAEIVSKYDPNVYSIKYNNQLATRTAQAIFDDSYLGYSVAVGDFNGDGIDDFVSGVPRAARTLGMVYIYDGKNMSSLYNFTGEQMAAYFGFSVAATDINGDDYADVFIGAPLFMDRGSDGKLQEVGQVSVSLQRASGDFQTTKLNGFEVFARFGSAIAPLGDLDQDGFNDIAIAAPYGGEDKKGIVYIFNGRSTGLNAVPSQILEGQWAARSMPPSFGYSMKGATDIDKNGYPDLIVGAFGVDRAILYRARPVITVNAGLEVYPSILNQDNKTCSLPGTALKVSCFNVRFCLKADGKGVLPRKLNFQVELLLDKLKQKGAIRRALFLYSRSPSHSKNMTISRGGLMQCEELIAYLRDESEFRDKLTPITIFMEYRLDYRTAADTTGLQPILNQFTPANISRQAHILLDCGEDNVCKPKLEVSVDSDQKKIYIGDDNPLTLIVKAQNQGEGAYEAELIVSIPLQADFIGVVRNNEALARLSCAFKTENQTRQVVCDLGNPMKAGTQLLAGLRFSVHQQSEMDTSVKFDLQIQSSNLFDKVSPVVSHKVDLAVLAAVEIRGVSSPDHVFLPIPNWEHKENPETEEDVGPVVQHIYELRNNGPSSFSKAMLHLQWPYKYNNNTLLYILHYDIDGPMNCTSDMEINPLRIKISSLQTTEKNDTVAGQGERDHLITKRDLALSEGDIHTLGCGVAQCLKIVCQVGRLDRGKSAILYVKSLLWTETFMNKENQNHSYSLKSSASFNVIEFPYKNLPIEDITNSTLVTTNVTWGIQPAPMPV
Sequence of human integrin αVβ1 (P05556 21-728 limits assumed): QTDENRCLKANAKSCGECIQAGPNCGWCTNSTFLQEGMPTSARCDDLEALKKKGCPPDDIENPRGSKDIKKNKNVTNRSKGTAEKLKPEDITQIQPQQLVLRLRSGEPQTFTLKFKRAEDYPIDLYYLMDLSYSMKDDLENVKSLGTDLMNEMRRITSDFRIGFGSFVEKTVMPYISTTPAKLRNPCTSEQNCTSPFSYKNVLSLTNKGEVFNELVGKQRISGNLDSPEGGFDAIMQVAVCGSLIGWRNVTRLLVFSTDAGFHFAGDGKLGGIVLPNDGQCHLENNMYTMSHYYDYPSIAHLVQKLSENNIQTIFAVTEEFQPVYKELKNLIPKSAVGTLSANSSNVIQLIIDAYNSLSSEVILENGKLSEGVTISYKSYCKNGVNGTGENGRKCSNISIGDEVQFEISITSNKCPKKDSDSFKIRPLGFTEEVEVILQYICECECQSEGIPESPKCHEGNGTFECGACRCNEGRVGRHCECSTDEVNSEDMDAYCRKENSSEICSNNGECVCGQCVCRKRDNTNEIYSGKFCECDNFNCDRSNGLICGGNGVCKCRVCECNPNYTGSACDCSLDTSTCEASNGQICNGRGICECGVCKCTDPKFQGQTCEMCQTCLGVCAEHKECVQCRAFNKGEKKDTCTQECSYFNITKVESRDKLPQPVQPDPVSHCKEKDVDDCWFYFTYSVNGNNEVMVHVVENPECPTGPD
Sequence of human integrin αVβ8 (P06756 31-992 limits assumed): as the sequence (P06756 31-992 limits assumed) above
Sequence of human integrin αVβ8 (P26012 43-684 limits assumed): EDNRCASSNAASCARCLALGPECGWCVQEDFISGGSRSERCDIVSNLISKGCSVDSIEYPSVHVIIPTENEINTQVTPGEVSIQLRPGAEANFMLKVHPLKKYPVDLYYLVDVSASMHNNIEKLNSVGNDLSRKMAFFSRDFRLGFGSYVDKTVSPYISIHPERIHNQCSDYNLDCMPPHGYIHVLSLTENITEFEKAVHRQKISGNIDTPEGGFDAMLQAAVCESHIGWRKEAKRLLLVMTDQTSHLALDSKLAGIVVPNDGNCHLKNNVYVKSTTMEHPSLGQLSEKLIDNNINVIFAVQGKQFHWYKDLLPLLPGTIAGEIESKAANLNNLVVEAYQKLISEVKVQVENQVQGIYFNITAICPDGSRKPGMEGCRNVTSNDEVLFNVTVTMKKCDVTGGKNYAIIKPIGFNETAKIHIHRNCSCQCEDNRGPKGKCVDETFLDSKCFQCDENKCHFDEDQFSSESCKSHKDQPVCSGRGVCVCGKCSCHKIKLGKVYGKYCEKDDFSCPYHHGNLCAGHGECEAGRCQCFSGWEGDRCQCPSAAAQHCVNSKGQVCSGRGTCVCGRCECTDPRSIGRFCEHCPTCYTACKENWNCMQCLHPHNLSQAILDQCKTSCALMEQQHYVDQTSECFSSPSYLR
Sequence of human integrin αVβ6 (P06756 31-992 limits assumed): as the sequence (P06756 31-992 limits assumed) above
Sequence of human integrin αVβ6 (P18564 22-707 limits assumed): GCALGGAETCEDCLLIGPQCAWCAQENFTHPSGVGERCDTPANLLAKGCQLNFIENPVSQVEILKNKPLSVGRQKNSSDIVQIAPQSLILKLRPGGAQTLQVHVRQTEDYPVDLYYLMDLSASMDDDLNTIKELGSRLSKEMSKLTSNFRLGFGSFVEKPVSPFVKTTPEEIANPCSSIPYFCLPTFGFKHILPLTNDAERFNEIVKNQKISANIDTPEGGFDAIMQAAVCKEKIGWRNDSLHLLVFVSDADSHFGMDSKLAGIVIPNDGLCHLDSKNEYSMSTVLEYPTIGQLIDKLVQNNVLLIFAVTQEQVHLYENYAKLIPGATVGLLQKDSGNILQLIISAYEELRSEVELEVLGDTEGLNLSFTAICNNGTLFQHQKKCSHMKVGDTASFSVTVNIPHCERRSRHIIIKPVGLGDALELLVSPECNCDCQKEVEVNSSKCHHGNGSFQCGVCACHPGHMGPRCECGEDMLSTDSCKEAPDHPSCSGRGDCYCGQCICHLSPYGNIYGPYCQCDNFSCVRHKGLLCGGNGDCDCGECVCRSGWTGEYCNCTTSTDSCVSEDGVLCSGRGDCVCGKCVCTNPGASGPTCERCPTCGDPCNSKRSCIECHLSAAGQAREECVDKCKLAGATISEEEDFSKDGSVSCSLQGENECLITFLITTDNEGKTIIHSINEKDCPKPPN

## COc1ncnc(Cl)c1C1(C(=O)N[C@@H](CCOCCCCc2ccc3c(n2)NCCC3)C(=O)O)CC1 [Compound 62, N-(1-(4-chloro-6-methoxypyrimidin-5-yl)cyclopropane-1-carbonyl)-O-(4-(5,6,7,8-tetrahydro-1,8-naphthyridin-2-yl)butyl)-L-homoserine]
Human integrin αVβ6
  IC50: ≥ 500 nM
Human integrin αVβ8
  IC50: < 50 nM
Human integrin αVβ1
  IC50: < 50 nM

## O=C(O)[C@H](CCOCCCCc1ccc2c(n1)NCCC2)NC(=O)C1(C(F)F)CCOC1 (stereo partly drawn) [Compound 83, N-(3-(difluoromethyl)tetrahydrofuran-3-carbonyl)-O-(4-(5,6,7,8-tetrahydro-1,8-naphthyridin-2-yl)butyl)-L-homoserine]
Human integrin αVβ6
  IC50: 250 to 500 nM
Human integrin αVβ8
  IC50: 50 to 150 nM
Human integrin αVβ1
  IC50: < 50 nM

## O=C(O)[C@H](CCOCCCCc1ccc2c(n1)NCCC2)NC(=O)C1(c2c(Cl)nc[nH]c2=O)CC1 [Compound 63, N-(1-(4-chloro-6-oxo-1,6-dihydropyrimidin-5-yl)cyclopropane-1-carbonyl)-O-(4-(5,6,7,8-tetrahydro-1,8-naphthyridin-2-yl)butyl)-L-homoserine]
Human integrin αVβ6
  IC50: ≥ 500 nM
Human integrin αVβ8
  IC50: 50 to 150 nM
Human integrin αVβ1
  IC50: 150 to 250 nM

## O=C(O)[C@H](CCOCCCCc1ccc2c(n1)NCCC2)NC(=O)C1(c2cncnc2)CC1 [Compound 22, N-(1-(pyrimidin-5-yl)cyclopropane-1-carbonyl)-O-(4-(5,6,7,8-tetrahydro-1,8-naphthyridin-2-yl)butyl)-L-homoserine]
Human integrin αVβ6
  IC50: ≥ 500 nM
Human integrin αVβ8
  IC50: 150 to 250 nM
Human integrin αVβ1
  IC50: < 50 nM

## CC(C)(C(=O)NC(CCOCCCCc1ccc2c(n1)NCCC2)C(=O)O)c1ccccc1 (stereo not drawn) [Compound 1, N-(2-methyl-2-phenylpropanoyl)-O-(4-(5,6,7,8-tetrahydro-1,8-naphthyridin-2-yl)butyl)homoserine]
Human integrin αVβ6
  IC50: ≥ 500 nM
Human integrin αVβ8
  IC50: 50 to 150 nM
Human integrin αVβ1
  IC50: < 50 nM

## COc1cncc(Cl)c1C1(C(=O)N[C@@H](CCOCCCCc2ccc3c(n2)NCCC3)C(=O)O)CC1 [Compound 34, N-(1-(3-chloro-5-methoxypyridin-4-yl)cyclopropane-1-carbonyl)-O-(4-(5,6,7,8-tetrahydro-1,8-naphthyridin-2-yl)butyl)-L-homoserine]
Human integrin αVβ6
  IC50: ≥ 500 nM
Human integrin αVβ8
  IC50: < 50 nM
Human integrin αVβ1
  IC50: < 50 nM

## COc1nccc(Cl)c1C1(C(=O)N[C@@H](CCOCCCCc2ccc3c(n2)NCCC3)C(=O)O)CC1 [Compound 44, N-(1-(4-chloro-2-methoxypyridin-3-yl)cyclopropane-1-carbonyl)-O-(4-(5,6,7,8-tetrahydro-1,8-naphthyridin-2-yl)butyl)-L-homoserine]
Human integrin αVβ6
  IC50: ≥ 500 nM
Human integrin αVβ8
  IC50: 50 to 150 nM
Human integrin αVβ1
  IC50: < 50 nM

## O=C(O)[C@H](CCOCCCCc1ccc2c(n1)NCCC2)NC(=O)C1(c2ncccn2)CC1 [Compound 12, N-(1-(pyrimidin-2-yl)cyclopropane-1-carbonyl)-O-(4-(5,6,7,8-tetrahydro-1,8-naphthyridin-2-yl)butyl)-L-homoserine]
Human integrin αVβ6
  IC50: ≥ 500 nM
Human integrin αVβ8
  IC50: ≥ 500 nM
Human integrin αVβ1
  IC50: 50 to 150 nM

## O=C(O)[C@H](CCOCCCCc1ccc2c(n1)NCCC2)NC(=O)C1(n2c(F)cccc2=O)CC1 [Compound 93, N-(1-(6-fluoro-2-oxopyridin-1(2H)-yl)cyclopropane-1-carbonyl)-O-(4-(5,6,7,8-tetrahydro-1,8-naphthyridin-2-yl)butyl)-L-homoserine]
Human integrin αVβ6
  IC50: > 500 nM
Human integrin αVβ8
  IC50: < 50 nM
Human integrin αVβ1
  IC50: < 50 nM

## N#Cc1c[nH]nc1C1(C(=O)N[C@@H](CCOCCCCc2ccc3c(n2)NCCC3)C(=O)O)CC1 [Compound 78, N-(1-(4-cyano-1H-pyrazol-3-yl)cyclopropane-1-carbonyl)-O-(4-(5,6,7,8-tetrahydro-1,8-naphthyridin-2-yl)butyl)-L-homoserine]
Human integrin αVβ6
  IC50: ≥ 500 nM
Human integrin αVβ8
  IC50: < 50 nM
Human integrin αVβ1
  IC50: < 50 nM

## O=C(N[C@@H](CCOCCCCc1ccc2c(n1)NCCC2)C(=O)O)c1cnn(-c2ccccc2)c1 [Compound 98, N-(1-phenyl-1H-pyrazole-4-carbonyl)-O-(4-(5,6,7,8-tetrahydro-1,8-naphthyridin-2-yl)butyl)-L-homoserine]
Human integrin αVβ6
  IC50: > 500 nM
Human integrin αVβ8
  IC50: 250 to 500 nM
Human integrin αVβ1
  IC50: 50 to 150 nM

## Cc1ncnc(C)c1C1(C(=O)N[C@@H](CCOCCCCc2ccc3c(n2)NCCC3)C(=O)O)CC1 [Compound 41, N-(1-(4,6-dimethylpyrimidin-5-yl)cyclopropane-1-carbonyl)-O-(4-(5,6,7,8-tetrahydro-1,8-naphthyridin-2-yl)butyl)-L-homoserine]
Human integrin αVβ6
  IC50: ≥ 500 nM
Human integrin αVβ8
  IC50: 50 to 150 nM
Human integrin αVβ1
  IC50: < 50 nM

## Cc1ncncc1C1(C(=O)N[C@@H](CCOCCCCc2ccc3c(n2)NCCC3)C(=O)O)CC1 [Compound 19, N-(1-(4-methylpyrimidin-5-yl)cyclopropane-1-carbonyl)-O-(4-(5,6,7,8-tetrahydro-1,8-naphthyridin-2-yl)butyl)-L-homoserine]
Human integrin αVβ6
  IC50: ≥ 500 nM
Human integrin αVβ8
  IC50: < 50 nM
Human integrin αVβ1
  IC50: < 50 nM

## O=C(O)[C@H](CCOCCCCc1ccc2c(n1)NCCC2)NC(=O)C1(c2ncnc3ccccc23)CC1 [Compound 31, N-(1-(quinazolin-4-yl)cyclopropane-1-carbonyl)-O-(4-(5,6,7,8-tetrahydro-1,8-naphthyridin-2-yl)butyl)-L-homoserine]
Human integrin αVβ6
  IC50: ≥ 500 nM
Human integrin αVβ8
  IC50: < 50 nM
Human integrin αVβ1
  IC50: < 50 nM

## Cc1nccnc1C1(C(=O)N[C@@H](CCOCCCCc2ccc3c(n2)NCCC3)C(=O)O)CC1 [Compound 42, N-(1-(3-methylpyrazin-2-yl)cyclopropane-1-carbonyl)-O-(4-(5,6,7,8-tetrahydro-1,8-naphthyridin-2-yl)butyl)-L-homoserine]
Human integrin αVβ6
  IC50: ≥ 500 nM
Human integrin αVβ8
  IC50: < 50 nM
Human integrin αVβ1
  IC50: < 50 nM

## COc1ncc(F)cc1C1(C(=O)N[C@@H](CCOCCCCc2ccc3c(n2)NCCC3)C(=O)O)CC1 [Compound 33, N-(1-(5-fluoro-2-methoxypyridin-3-yl)cyclopropane-1-carbonyl)-O-(4-(5,6,7,8-tetrahydro-1,8-naphthyridin-2-yl)butyl)-L-homoserine]
Human integrin αVβ6
  IC50: ≥ 500 nM
Human integrin αVβ8
  IC50: < 50 nM
Human integrin αVβ1
  IC50: < 50 nM

## O=C(O)[C@H](CCOCCCCc1ccc2c(n1)NCCC2)NC(=O)C1(c2c(Cl)cc[nH]c2=O)CC1 [Compound 68, N-(1-(4-chloro-2-oxo-1,2-dihydropyridin-3-yl)cyclopropane-1-carbonyl)-O-(4-(5,6,7,8-tetrahydro-1,8-naphthyridin-2-yl)butyl)-L-homoserine]
Human integrin αVβ6
  IC50: ≥ 500 nM
Human integrin αVβ8
  IC50: < 50 nM
Human integrin αVβ1
  IC50: < 50 nM

## O=C(N[C@@H](CCOCCCCc1ccc2c(n1)NCCC2)C(=O)O)c1ccn(-c2ccccc2)n1 [Compound 97, N-(1-phenyl-1H-pyrazole-3-carbonyl)-O-(4-(5,6,7,8-tetrahydro-1,8-naphthyridin-2-yl)butyl)-L-homoserine]
Human integrin αVβ6
  IC50: 250 to 500 nM
Human integrin αVβ8
  IC50: 250 to 500 nM
Human integrin αVβ1
  IC50: 50 to 150 nM

## O=C(O)[C@H](CCOCCCCc1ccc2c(n1)NCCC2)NC(=O)C1(n2cncc2C(F)F)CC1 [Compound 64, N-(1-(5-(difluoromethyl)-1H-imidazol-1-yl)cyclopropane-1-carbonyl)-O-(4-(5,6,7,8-tetrahydro-1,8-naphthyridin-2-yl)butyl)-L-homoserine]
Human integrin αVβ6
  IC50: ≥ 500 nM
Human integrin αVβ8
  IC50: 50 to 150 nM
Human integrin αVβ1
  IC50: < 50 nM

## CC(C)(C(=O)N[C@@H](CCOCCCCc1ccc2c(n1)NCCC2)C(=O)O)c1ccccc1 [Compound 2, N-(2-methyl-2-phenylpropanoyl)-O-(4-(5,6,7,8-tetrahydro-1,8-naphthyridin-2-yl)butyl)-L-homoserine]
Human integrin αVβ6
  IC50: ≥ 500 nM
Human integrin αVβ8
  IC50: 50 to 150 nM
Human integrin αVβ1
  IC50: < 50 nM

## O=C(O)[C@H](CCOCCCCc1ccc2c(n1)NCCC2)NC(=O)C1(c2cnccn2)CC1 [Compound 11, N-(1-(pyrazin-2-yl)cyclopropane-1-carbonyl)-O-(4-(5,6,7,8-tetrahydro-1,8-naphthyridin-2-yl)butyl)-L-homoserine]
Human integrin αVβ6
  IC50: ≥ 500 nM
Human integrin αVβ8
  IC50: 50 to 150 nM
Human integrin αVβ1
  IC50: < 50 nM

## O=C(O)[C@H](CCOCCCCc1ccc2c(n1)NCCC2)NC(=O)C1(c2cccc(C(F)(F)F)c2)CCOCC1 [Compound 86, O-(4-(5,6,7,8-tetrahydro-1,8-naphthyridin-2-yl)butyl)-N-(4-(3-(trifluoromethyl)phenyl)tetrahydro-2H-pyran-4-carbonyl)-L-homoserine]
Human integrin αVβ6
  IC50: > 500 nM
Human integrin αVβ8
  IC50: < 50 nM
Human integrin αVβ1
  IC50: < 50 nM

## O=C(O)[C@H](CCOCCCCc1ccc2c(n1)NCCC2)NC(=O)C1(c2cccnc2C(F)F)CC1 [Compound 57, N-(1-(2-(difluoromethyl)pyridin-3-yl)cyclopropane-1-carbonyl)-O-(4-(5,6,7,8-tetrahydro-1,8-naphthyridin-2-yl)butyl)-L-homoserine]
Human integrin αVβ6
  IC50: ≥ 500 nM
Human integrin αVβ8
  IC50: 50 to 150 nM
Human integrin αVβ1
  IC50: < 50 nM

## O=C(O)[C@H](CCOCCCCc1ccc2c(n1)NCCC2)NC(=O)C1(C(F)(F)F)CCOCC1 [Compound 100, O-(4-(5,6,7,8-tetrahydro-1,8-naphthyridin-2-yl)butyl)-N-(4-(trifluoromethyl)tetrahydro-2H-pyran-4-carbonyl)-L-homoserine]
Human integrin αVβ6
  IC50: 50 to 150 nM
Human integrin αVβ8
  IC50: < 50 nM
Human integrin αVβ1
  IC50: < 50 nM
